Measured values published in publication PMC11547513, “Design, Synthesis and Biological Activity Evaluation of β-Carboline Derivatives Containing Nitrogen Heterocycles” (Molecules, 2024).
Where two headings read alike, the source gives them in different places.

How the values were obtained:
[1] = test system: PC-3 cells; assay: Wound healing assay; assay type: cell-based, human; details: 30 μM, 24 h; control group 46.41%
Protocol: Given that cell migration plays a pivotal role in tumor cell invasion, to further validate the impact of compound 8q on PC-3 cell motility, a wound healing assay was conducted. […] These findings underscore the potent inhibitory effect of compound 8q on the motility of PC-3 cells. […]
(§1) a wound healing assay was performed using the method we previously reported1. In short, PC-3 cells were seeded in a six-well plate at a density of 10 × 105 and incubated at a constant temperature of 37 ℃ and 5% CO2 for 24 h. Then the pipette tip was used to create a uniform wound on the surface of cells. Subsequently, after cleaning twice with PBS, the scratch healing of the 8q treatment group and the positive drug treatment […]
(§2) was used to measure and quantify cell migration. […]

[2] = test system: K562 (human chronic myeloid leukemia cell); assay: MTT assay, in vitro cytotoxicity on K562; details: Homo sapiens; for inhibition at 10 µM: K562, read-out: Inhibitory Activity/% at 10 μM, K562
Excerpt: (§5) Cells were purchased from the Cell Bank of the Chinese Academy of Sciences (Kunming, China).

[3] = test system: PC-3 (human prostate cancer cell); assay: MTT assay, in vitro cytotoxicity on PC-3
Excerpt: as §5

[4] = test system: A549 (human lung cancer cell); assay: MTT assay, in vitro cytotoxicity on A549; details: for IC50: A549, read-out: IC50 (Mean ± S.D.), A549
Excerpt: as §5

[5] = test system: T47D (human breast cancer cell); assay: MTT assay, in vitro cytotoxicity on T47D; details: for IC50: read-out: IC50 (Mean ± S.D.), T47D
Excerpt: as §5

[6] = test system: PC-3 cells; assay: Annexin V-FITC/PI apoptosis, flow cytometry; assay type: cell-based, human; details: 30 μM
Excerpt: (§3) Apoptosis is an important target for antitumor therapy. To explore the antitumor mechanism of compound 8q, cell apoptosis was detected using flow cytometry. […] Moreover, reactive oxygen species (ROS) play a significant role in cell growth, differentiation and apoptosis. Excessive ROS can cause oxidative damage and lead to cell apoptosis. […]
2.3.The effect of compound 8q on cell apoptosis
We used Annexin V-FITC/ PI double staining to evaluate cellular apoptosis via flow cytometry to figure out if apoptosis participates in the inhibition of cell growth.
PC-3 cells were seeded in a six-well plate at a density of 3 × 105, and cultured at 37 ℃ and 5% CO2 for 24 h before adding 10 μM. 20 μM and 30 μM compound 8q and 30 μM Harmine to each well. After 48 h, the cells were collected and stained and incubated flowing the manufacturer ’s protocol of the Annexin V-FITC/PI Apoptosis Detection Kit (Solarbio, Beijing, China). After completion, the cells were immediately detected on the Flow Cytometry (Solarbio, Beijing, China). The experimental results were processed using Flow Jo and Prism 7.04 software. […]

[7] = test system: PC-3 cells; assay: Cell cycle assay (PI, flow cytometry); assay type: cell-based, human; details: 30 μM, 24 h
Protocol: To analyze the effect of compound 8q on cell cycle, the cycle of PC-3 cells was detected after being treated with compound 8q for 24 h (Figure 5). […] In addition, Cyclin D1, a cell cycle-related protein, is a key regulator of cycle progression, mainly regulating G1/S phase transition. […] In summary, compound 8q can arrest cells in the G0/G1 phase. […]
2.5. Cell cycle arrest of compound 8q on PC-3
To determine the effect of compound 8q on the cell cycle distribution of PC-3 cell, we used our previous method with slight modifications2. Briefly, cells were incubated in a six-well plate with a density of 3 × 105 at 37 ℃ and 5% CO2 for 24 h, followed by the addition of different concentrations of compound 8q for further incubation for 24 h.
Next, the cells were collected and washed twice with PBS. 75% anhydrous ethanol was used to immobilize the cells under overnight conditions at 4 ℃. Subsequently, PBS washed cells, and RNase from the cell cycle assay kit (Solarbio, Beijing, China) was added and incubated in a constant temperature (37 ℃) water bath for 30 min. Then PI was added under dark conditions and incubated at 4 ℃ for another half hour to detect.
(§4) The distribution of cycles was analyzed by Flow Jo and Prism 7.04 software. […]

[8] = test system: Hek-293T (human embryonic kidney cells); assay: MTT assay, in vitro cytotoxicity on normal Hek-293T; details: read-out: Inhibitory Activity/% at 10 μM, Hek-293T
Excerpt: as §5

[9] = test system: PC-3 cells; assay: Intracellular ROS assay (DCFH-DA, flow cytometry); assay type: cell-based, human; details: 30 μM, 24 h; negative control MFI 19.8
Protocol: as §3, §1, §2
PC-3 cells were seeded in a six-well plate at a density of 3 × 105, and cultured at 37 ℃ and 5% CO2 for 24 h before adding 10 μM. […] After completion, the cells were immediately detected on the Flow Cytometry (Solarbio, Beijing, China). […]
at 37 ° C for 20 min. Subsequently, the staining solution was wash off with basic culture medium and detected the fluorescence intensity using the flow cytometer. The data was analyzed and obtained through Flow Jo and Prism 7.04 software. […]
as §4

[10] = Observation of water solubility / precipitation during the cell experiments; details: during antitumor activity measurement
[11] = Homo sapiens, read-out: Inhibitory Activity/% at 10 μM, PC-3, Table 2 (8 series), 10 μM, average of three replicates, "/" means no anticancer activity
[12] = A549, read-out: Inhibitory Activity/% at 10 μM, A549
[13] = read-out: Inhibitory Activity/% at 10 μM, T47D
[14] = Homo sapiens, read-out: Inhibitory Activity/% at 10 μM, PC-3, Table 1 (7 series), 10 μM, average of three replicates, "/" means no anticancer activity

| Structure (SMILES) | melting point | inhibition at 10 µM [2] | inhibition at 10 µM [8] | inhibition at 10 µM [3, 11] | inhibition at 10 µM [4, 12] | inhibition at 10 µM [5, 13] | inhibition at 10 µM [3, 14] | also measured |
| --- | --- | --- | --- | --- | --- | --- | --- | --- |
| COc1ccc2c(c1)[nH]c1c(C)nccc12 [Harmine, reference compound] | – | 36 ± 2.77% | 29.1 ± 3.19% | – | – | – | – | Migration rate of PC-3 cells [1]: 21.51%; IC50 ([2]; K562, read-out: IC50 (Mean ± S.D.), K562): 15.7 ± 2.27 µM; IC50 ([3]; Homo sapiens, read-out: IC50 (Mean ± S.D.), PC-3): 24.4 ± 4.45 µM; inhibition at 10 µM ([3]; Homo sapiens, read-out: Inhibitory Activity/% at 10 μM, PC-3): 14.5 ± 1.42%; IC50 [4]: 25.9 ± 4.78 µM; inhibition at 10 µM ([4]; A549, read-out: Inhibitory Activity/% at 10 μM, A549, Table 1 (7 series), 10 μM, average of three replicates, "/" means no anticancer activity): 31 ± 2.81%; inhibition at 10 µM ([4]; A549, read-out: Inhibitory Activity/% at 10 μM, A549, Table 2 (8 series), 10 μM, average of three replicates, "/" means no anticancer activity): 31.2 ± 2.67%; IC50 [5]: 38.5 ± 1.17 µM; inhibition at 10 µM ([5]; read-out: Inhibitory Activity/% at 10 μM, T47D, Table 1 (7 series), 10 μM, average of three replicates, "/" means no anticancer activity): 51.3 ± 4.58%; inhibition at 10 µM ([5]; read-out: Inhibitory Activity/% at 10 μM, T47D, Table 2 (8 series), 10 μM, average of three replicates, "/" means no anticancer activity): 48.8 ± 2.37%; Total apoptosis rate in PC-3 cells ([6]; 48 h): 65.96%; Annexin V-FITC/PI flow cytometry quadrant Q1 ([6]; Figure 4A): 0.21; Annexin V-FITC/PI flow cytometry quadrant Q2 ([6]; Figure 4A): 35.4; Annexin V-FITC/PI flow cytometry quadrant Q3 ([6]; Figure 4A): 34.2; Annexin V-FITC/PI flow cytometry quadrant Q4 ([6]; Figure 4A): 30.2; Cell cycle distribution, S phase ([7]; negative control 20.8%): 26.4%; Cell cycle distribution, G2/M phase ([7]; negative control 23.6%): 49.0%; Cell cycle distribution, G0/G1 phase ([7]; negative control 50.6%): 17.3%; ROS mean fluorescence intensity (MFI) value [9]: 37.9 |
| O=C(CSc1nnc(-c2cc3c(cn2)[nH]c2ccccc23)o1)N1CCN(c2ccccc2)CC1 [Compound 7i] | 148.9 to 150.6 °C | 23.6 ± 3.59% | 84.14 ± 0.79% | – | 5.2 ± 7.21% | 54.2 ± 3.88% | 35.6 ± 1.89% | – |
| O=C(CSc1nnc(-c2cc3c(cn2)[nH]c2ccccc23)o1)N1CCOc2ccccc21 [Compound 7n] | 232.4 to 232.8 °C | 35.1 ± 3.12% | 61.8 ± 1.57% | – | 8.72 ± 2.57% | 47.8 ± 0.82% | 36 ± 3.68% | – |
| COc1cc(-c2nc(-c3nnc(SCC(=O)N4CCN(c5ncccn5)CC4)o3)cc3c2[nH]c2ccccc23)cc(OC)c1OC [Compound 8g] | – | 6.38 ± 0.52% | 29 ± 4.56% | 45.4 ± 0.82% | 35.8 ± 1.17% | 40.6 ± 4.48% | – | IC50 ([2]; K562, read-out: IC50 (Mean ± S.D.), K562, average of three replicates): > 40 µM; IC50 ([3]; Homo sapiens, read-out: IC50 (Mean ± S.D.), PC-3, average of three replicates): < 10 µM; IC50 ([3]; read-out: IC50 (Mean ± S.D.), PC-3, average of three replicates): 9.56 ± 1.43 µM; IC50 [4]: > 40 µM; IC50 [5]: > 40 µM; Precipitation observed under microscopy [10]: precipitate crystals |
| O=C(CSc1nnc(-c2cc3c(cn2)[nH]c2ccccc23)o1)N1CCN(c2ccc(Cl)c(Cl)c2)CC1 [Compound 7a] | 168.3 to 170.9 °C | 0.85 ± 1.01% | 18.6 ± 0.71% | – | 0.72 ± 1.63% | 32.3 ± 3.36% | 29.58 ± 0.25% | – |

More lines, main results first:

| melting point | Structure (SMILES) | inhibition at 10 µM [2] | inhibition at 10 µM [8] | inhibition at 10 µM [3, 11] | inhibition at 10 µM [4, 12] | inhibition at 10 µM [5, 13] | inhibition at 10 µM [3, 14] | also measured |
| --- | --- | --- | --- | --- | --- | --- | --- | --- |
| 156.5 to 158.6 °C | COc1ccc(N2CCN(C(=O)CSc3nnc(-c4cc5c([nH]c6ccccc65)c(-c5cc(OC)c(OC)c(OC)c5)n4)o3)CC2)cc1 [Compound 8f] | 7.87 ± 5.82% | 20.2 ± 4.34% | 34.5 ± 0.68% | 13.2 ± 0.56% | 6.91 ± 5.13% | – | – |
| 225.9 to 226.8 °C | COc1cc(-c2nc(-c3nnc(SCC(=O)N4CCOc5ccccc54)o3)cc3c2[nH]c2ccccc23)cc(OC)c1OC [Compound 8n] | 38.2 ± 3.73% | 35.5 ± 1.75% | 32 ± 1.17% | 7.62 ± 3.84% | 25.6 ± 3.79% | – | – |
| 178.1 to 179.4 °C | COc1cc(-c2nc(-c3nnc(SCC(=O)N4CCN(c5ccc(F)cc5F)CC4)o3)cc3c2[nH]c2ccccc23)cc(OC)c1OC [Compound 8h] | 2.46 ± 1.78% | 29.6 ± 3.04% | 12.2 ± 1.13% | 17.9 ± 2.91% | < 0% | – | – |
